The values below come from US20070167510A1, “Methods for inhibiting osteoclastogenesis” (priority 2006, published 2007).

The subject of series [1] is MM.1S cells. The series can be described thus: Proliferation assay (3H-thymidine incorporation), MM.1S. As to conditions: 48 hours. The series is classed as cell-based, human. How it is done: (§1) DNA synthesis was measured by ^3H-thymidine incorporation (3H-TdR; NEN Products, Zaventem, Belgium). Cells were pulsed with ^3H-thymidine (1 μCi/well) during the last 8 hours of culture, harvested onto glassfibre filter mats (Wallac, Gaithersburg, Md.) with an automatic cell harvester (Tomtec Harvester 960 MachIII), and counted using Wallac TriLux Beta plate scintillation counter. All experiments were performed in triplicate.
(In general: Incorporation of labelled thymidine or its analogues reports DNA synthesis.)

The subject of series [2] is OPM2 cells. The series can be described thus: Proliferation assay (3H-thymidine incorporation), OPM2. The series is classed as cell-based, human. Particulars: 48 hours. Here is the method:
as §1

Series [3] deals with RPMI-8226 cells. The series can be described thus: Proliferation assay (3H-thymidine incorporation), RPMI-8226. As to conditions: RPMI-1822 / RPMI cells as printed, 48 hours. It counts as cell-based, human. How it is done: as §1
Series [4] deals with non-adherent mononuclear bone marrow cells from healthy donors. It counts as cell-based. Here is the method:
(§2) Non-adherent mononuclear cells (10^5 cells/well) from either healthy donor or multiple myeloma patients, as well as purified human CD34^+ cells, were seeded in 96-well multi-plates at 100 μl/well in α-MEM medium containing 20% horse serum, 10 ng/ml M-CSF and 50 ng/ml RANKL. […] Half media change was carried out twice a week.
(§3) The culture was incubated for a total of 3 weeks at 37° C. in an incubator of 5% CO2-air. OCL formation was assessed by staining with monoclonal antibody 23c6, which recognizes the CD51/61 dimer on the osteoclast vitronectin receptor (generously provided by Michael Horton, Rayne Institute, Bone and Mineral Center, London, UK), using a Vectastatin-ABC-AP kit (Vector Laboratories, Inc. Burlingame, Calif.). The 23c6^+ multinucleated osteoclasts containing 3 or more nuclei per osteoclast were scored using an inverted microscope. For RAW 264.7 cells, OCL differentiation assay was carried out in 96-well plates. […] Half media change was performed every 2-3 days by replacing with fresh medium containing RANKL with or without tested drugs. Cells were fixed and stained with TRAP-staining kit (Sigma-Aldrich) according to the manufacturer's instructions. TRAP-positive multinuclear cells (>3 nuclei) were counted under the inverted microscope.

The test system of series [5] is non-adherent mononuclear bone marrow cells from multiple myeloma patients. The series can be described thus: Osteoclast formation assay, MM patient bone marrow. The series is classed as cell-based, human. Here is the method:
as §2, §3

Series [6] deals with CFU-GM colony cells (osteoclast precursors). The series can be described thus: Osteoclast formation assay with purified CFU-GM cells. It counts as cell-based, human.
Series [7] deals with bone marrow cells from healthy donor on whale dentin slices. The series can be described thus: Osteoclastic bone resorption on dentin slices. The series is classed as cell-based, human. As to conditions: 3 weeks. How it is done:
Bone marrow cells from healthy donor (2×10^5 cells/well) were seeded on whale dentin slices in 96-well multi-plates at 100 μl/well in α-MEM medium containing 20% horse serum. In addition, 10 ng/ml M-CSF and 50 ng/ml RANKL were added. Half media changes were performed twice a week with fresh media. […] Culture was continued for 3 weeks at 37° C. in an incubator of 5% CO2-air. After 3 weeks, dentin slices were stained with TRAP staining to confirm the osteoclast formation. Then, bone resorption lacunae were stained with hematoxylin. Pit area was quantified by using the public domain NIH ImageJ program. Fixed small representative areas on dentin slices selected and the mean resorption areas were determined.

Series [8] concerns CD34+ cells (hematopoietic progenitors). The series can be described thus: Colony assays in methylcellulose. The series is classed as cell-based, human. As to conditions: 14 days. Here is the method: Methocult GF H4434 contained the following hematopoietic growth factors: recombinant human (rh) Erythropoietin 3 U/ml, rh SCF 50 ng/ml, rh granulocyte-macrophage colony-stimulating factor (GM-CSF) 10 ng/ml, and rh IL-310 ng/ml as well as Methylcellulose (1%), Fetal Bovine Serum 30%, Bovine Serum Albumin (1%), 2-Mercaptoethanol ([…]), and L-glutamine (2 mM). Cells were incubated in at 37° C., 5% CO2 with 95% humidity for 14-16 days. Formation and relative distribution of burst forming unit-erythroid (BFU-E), colony forming unit-macrophages (CFU-M) and colony forming unit-granulocyte, macrophage (CFU-GM) colonies were evaluated by scoring under an inverted microscope. Each colony experiment was carried out in triplicate.

Series [9] deals with MC-42 cells (MC3T3-E1 pre-osteoblastic). The series can be described thus: Osteoblast differentiation: ALP activity. The series is classed as cell-based, mouse. Particulars: SDX-101 75 μM, SDX-308 7.5 μM, 24 hours. From the text:
(§4) Cells were then harvested for luciferase and ALP (alkaline phosphatase) activity assay. Luciferase and ALP activity were normalized to total protein content of the sample (Xiao G et al. (1997) Mol. Endocrinol. 11:1103-13). […] Samples were then stained using the Von Kossa method (Xiao G et al. (1998) J. Biol. Chem. 273:32988-94).

Series [10] deals with MC-42 cells. The series can be described thus: Osteoblast mineralization (von Kossa). The series is classed as cell-based, mouse. As to conditions: 48 hours, 5.0 mM inorganic phosphate.
From the text: as §4

In series [11] the test system is MIP-1α. The series can be described thus: Bio-plex cytokine assay of osteoclast culture supernatants: MIP-1α. The series is classed as cell-based, human. As to conditions: day four; controls 12,000. The text has this: […] of IL-1α, IL-1β, IL-2, IL-3, IL-4, IL-5, IL-6, IL-7, IL-8, IL-9, IL-10, IL-13, IL-15, IL-17, IL-12p40, IFNα, IFNγ, TNF-α, TNFR-I, TNFR-II, G-CSF, GM-CSF, MCP-1, MIP-1α, MIP-1β, MIG, IP-10, EOTAXIN, RANTES, DR5, EGF, VEGF, FGF-b, and HGF by Bio-plex Cytokine Assay (BIO-RAD Laboratories, USA).

The test system of series [12] is IFN-γ. The series can be described thus: Bio-plex cytokine assay of osteoclast culture supernatants: IFN-γ. It counts as cell-based, human. Particulars: three weeks treatment. Here is the method: (§5) Supernatants collected on day 5, 9, 12, 16 and 21 were analyzed for expression of IL-1α, IL-1β, IL-2, IL-3, IL-4, IL-5, IL-6, IL-7, IL-8, IL-9, IL-10, IL-13, IL-15, IL-17, IL-12p40, IFNα, IFNγ, TNF-α, TNFR-I, TNFR-II, G-CSF, GM-CSF, MCP-1, MIP-1α, MIP-1β, MIG, IP-10, EOTAXIN, RANTES, DR5, EGF, VEGF, FGF-b, and HGF by Bio-plex Cytokine Assay (BIO-RAD Laboratories, USA).

Series [13] concerns MIG (monokine induced by IFN-gamma). The series can be described thus: Bio-plex cytokine assay of osteoclast culture supernatants: MIG. The series is classed as cell-based, human. As to conditions: three weeks treatment. Here is the method:
as §5

Series [14] has as its system RAW 264.7 cells. The series can be described thus: RANKL-induced OCL differentiation of RAW 264.7 cells (TRAP). It counts as cell-based, murine. As to conditions: 5 days, RANKL 50 ng/ml, SDX-101 75 μM, SDX-308 7.5 μM. How it is done:
as §3

The subject of series [15] is RAW 264.7 cells. The series can be described thus: Cellular viability of RAW 264.7 cells. The series is classed as cell-based, mouse. As to conditions: data not shown.
Series [16] deals with IκBα. The series can be described thus: Western blot of IκBα phosphorylation and degradation, MM.1S. The series is classed as cell-based, human. How it is done: For detection of p65 translocation, cellular nuclear and cytoplasmic extracts were prepared with Nuclear and Cytoplasmic Extraction Reagents (Pierce, Rockford, Ill.). Cell lysates (20-40 μg) were subjected to 10% sodium dodecyl sulfate-polyacrylamide gel electrophoresis and transferred to PVDF membrane (Millipore, Danvers, Mass.). The blots were probed with anti-p65, anti-phospho p65, anti-IκB-α, anti-phospho IκB-α, or anti-phospho IKK-γ (all from Cell Signaling, Beverly, Mass.), and beta-actin antibody (Amersham, Piscataway, N.J.). Immune complexes were detected using enhanced chemiluminescence (Amersham).
Background: Immunoblotting shows a protein as a band on a membrane.

In series [17] the test system is MM cell lines and freshly isolated primary MM cells. As to conditions: Yasui H et al., 2005; cited from earlier work.

As to `CCc1cccc2c3c([nH]c12)[C@@](CC)(CC(=O)O)OCC3` [SDX-101, R-etodolac], the “concentration at which DNA synthesis (thymidine incorporation) was significantly inhibited” value in [1] was determined as 10 µM; in series [2], 100 µM; in series [3] it was 100 µM. Besides, the “doses exhibiting inhibition of OCL formation” value in series [4] (3 weeks, RANKL 50 ng/ml, M-CSF 10 ng/ml) was “over 50 μM”. Moreover, in series [4] (any doses tested), the “cell death during the 3 week OCL formation assay” value is “No cell death was observed”. For the same molecule, the “inhibition of OCL formation, time course of drug addition” value in series [4] (healthy donor cells, SDX-101 75 μM, SDX-308 7.5 μM, 3 weeks vs first/last 1 or 2 weeks) was “significantly higher when drug was added during the entire 3 weeks”; in series [5] (MM patient cells, SDX-101 75 μM, SDX-308 7.5 μM, 3 weeks vs first/last 1 or 2 weeks), “significantly higher when drug was added during the entire 3 weeks”. The “inhibition of RANK-L/M-CSF-induced human osteoclastogenesis” value in series [4] (healthy donor cultures, 21-day assay, SDX-101 30 to 100 μM, SDX-308 3 to 10 μM) is “dose-dependent inhibition”; in series [5] (MM patient cultures, 21-day assay, SDX-101 30 to 100 μM, SDX-308 3 to 10 μM), “dose-dependent inhibition”. In addition, the “osteoclast inhibition by time point of drug addition” value in series [6] (first 1, 2 or 3 weeks or last 1, 2 or 3 weeks) is “no differences in osteoclast inhibition”. The “osteoclast numbers formed from osteoclast progenitor cells” value in series [6] (purified CFU-GM cells, 21 days) is given as “significantly decreased osteoclast numbers”. Besides, the “measured bone resorption area” value in [7] (75 μM, untreated control 8.6) turned out to be 1.3 mm^2. Besides, the bone resorption result in [7] (SDX-101 75 μM, SDX-308 7.5 μM) is reported as “inhibited significantly”. Also, the “number of the CFU colonies formed compared to untreated cells” value in series [8] (CD34+ cells) was “not significantly different”. Moreover, the “interference with hematopoietic lineage commitment” value in series [8] (SDX-101 30, 50, 75 μM, SDX-308 1, 5, 7.5 μM) is recorded as “none of the doses tested for both SDX derivatives interferes”. For the same molecule, the ALP activity entry in series [9] is “did not decrease the ALP activity”. For the same molecule, in series [10], the “mineralization of osteoblasts (von Kossa staining)” value is listed as “did not inhibit mineralization”. In addition, the MIP-1α in supernatant in series [11] is given as 6,000 pg/ML. Moreover, the “IFN-γ secretion in osteoclast formation assays” value in series [12] is recorded as “significantly decreased”. Besides, in [13], the “MIG secretion in osteoclast formation assays” value was “significantly decreased”. The “RANKL-induced OCL formation from RAW 264.7 cells” value in series [14] is “suppressed”. Also, the “cellular viability, drug alone” value in series [15] was “no significant effects”. Also, the “TNF-induced IκBα phosphorylation and degradation” value in series [16] is listed as “minor or no obvious effect”. For the same molecule, the apoptosis entry in [17] is listed as “induces apoptosis”.
